How the values were obtained:
Test in all cases: relative viability (nuclei count vs DMSO), 5 days (fraction); higher = more cells survive
[1] = tested on: 201T
Procedure, shortened: (§1)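 Lung cancer cell lines in 1536-well plates got either a single drug or a fixed anchor-drug dose together with five library-drug doses (not always all listed) in √10 steps, by pin tool, on the day after seeding. Nuclei were counted after 5 days, and relative viability is the treated-to-vehicle ratio of nuclei counts. Values are medians of duplicate plates.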

[2] = tested on: ABC-1
Procedure, shortened: as §1

[3] = tested on: CAL-12T
Procedure, shortened: as §1

[4] = tested on: COR-L23
Procedure, shortened: as §1

[5] = tested on: ChaGo-K-1
Procedure, shortened: as §1

[6] = tested on: HCC-44
Procedure, shortened: as §1

[7] = tested on: HOP-62
Procedure, shortened: as §1

[8] = tested on: LC-2-ad
Procedure, shortened: as §1

[9] = tested on: LCLC-103H
Procedure, shortened: as §1

[10] = tested on: NCI-H1355
Procedure, shortened: as §1

[11] = tested on: NCI-H1395
Procedure, shortened: as §1

[12] = tested on: NCI-H1651
Procedure, shortened: as §1

[13] = tested on: NCI-H1666
Procedure, shortened: as §1

[14] = tested on: NCI-H1993
Procedure, shortened: as §1

[15] = tested on: NCI-H2085
Procedure, shortened: as §1

[16] = tested on: NCI-H2170
Procedure, shortened: as §1

[17] = tested on: NCI-H2228
Procedure, shortened: as §1

[18] = tested on: NCI-H2342
Procedure, shortened: as §1

[19] = tested on: NCI-H2347
Procedure, shortened: as §1

[20] = tested on: NCI-H23
Procedure, shortened: as §1

[21] = tested on: NCI-H322M
Procedure, shortened: as §1

[22] = tested on: NCI-H520
Procedure, shortened: as §1

[23] = tested on: NCI-H647
Procedure, shortened: as §1

[24] = tested on: NCI-H661
Procedure, shortened: as §1

[25] = tested on: NCI-H838
Procedure, shortened: as §1

SMILES: CCCCCCCCCCCC1=C(O)C(=O)C=C(O)C1=O [Embelin] + O=C(CCCCCCC(=O)Nc1ccccc1)NO [Vorinostat] (partner 1 µM)
- relative viability ([1]; first compound 0.08 µM): 0.993
- relative viability ([1]; first compound 0.8 µM): 1.01
- relative viability ([1]; first compound 2.53 µM): 1.04
- relative viability ([1]; first compound 8 µM): 0.851
- relative viability ([2]; first compound 0.08 µM): 1.04
- relative viability ([2]; first compound 0.8 µM): 1.48
- relative viability ([2]; first compound 2.53 µM): 0.955
- relative viability ([2]; first compound 8 µM): 0.86
- relative viability ([3]; first compound 0.08 µM): 0.848
- relative viability ([3]; first compound 0.8 µM): 0.779
- relative viability ([3]; first compound 2.53 µM): 0.677
- relative viability ([3]; first compound 8 µM): 0.697
- relative viability ([4]; first compound 0.08 µM): 0.404
- relative viability ([4]; first compound 0.8 µM): 0.559
- relative viability ([4]; first compound 2.53 µM): 0.386
- relative viability ([4]; first compound 8 µM): 0.492
- relative viability ([5]; first compound 0.08 µM): 0.739
- relative viability ([5]; first compound 0.8 µM): 0.782
- relative viability ([5]; first compound 2.53 µM): 0.871
- relative viability ([5]; first compound 8 µM): 0.755
- relative viability ([6]; first compound 0.08 µM): 1.09
- relative viability ([6]; first compound 0.8 µM): 1.08
- relative viability ([6]; first compound 2.53 µM): 1.12
- relative viability ([6]; first compound 8 µM): 1.2
- relative viability ([7]; first compound 0.08 µM): 0.634
- relative viability ([7]; first compound 0.8 µM): 0.812
- relative viability ([7]; first compound 2.53 µM): 0.504
- relative viability ([7]; first compound 8 µM): 0.527
- relative viability ([8]; first compound 0.08 µM): 0.759
- relative viability ([8]; first compound 0.8 µM): 0.695
- relative viability ([8]; first compound 2.53 µM): 0.716
- relative viability ([8]; first compound 8 µM): 0.774
- relative viability ([9]; first compound 0.08 µM): 0.851
- relative viability ([9]; first compound 0.8 µM): 0.885
- relative viability ([9]; first compound 2.53 µM): 0.75
- relative viability ([9]; first compound 8 µM): 0.714
- relative viability ([10]; first compound 0.08 µM): 0.649
- relative viability ([10]; first compound 0.8 µM): 0.699
- relative viability ([10]; first compound 2.53 µM): 0.636
- relative viability ([10]; first compound 8 µM): 0.523
- relative viability ([11]; first compound 0.08 µM): 0.615
- relative viability ([11]; first compound 0.8 µM): 1
- relative viability ([11]; first compound 2.53 µM): 0.48
- relative viability ([11]; first compound 8 µM): 0.521
- relative viability ([12]; first compound 0.08 µM): 0.576
- relative viability ([12]; first compound 0.8 µM): 0.629
- relative viability ([12]; first compound 2.53 µM): 0.575
- relative viability ([12]; first compound 8 µM): 0.59
- relative viability ([13]; first compound 0.08 µM): 1.07
- relative viability ([13]; first compound 0.8 µM): 1.03
- relative viability ([13]; first compound 2.53 µM): 1.09
- relative viability ([13]; first compound 8 µM): 1.05
- relative viability ([14]; first compound 0.08 µM): 0.825
- relative viability ([14]; first compound 0.8 µM): 0.772
- relative viability ([14]; first compound 2.53 µM): 0.764
- relative viability ([14]; first compound 8 µM): 0.646
- relative viability ([15]; first compound 0.08 µM): 0.742
- relative viability ([15]; first compound 0.8 µM): 0.932
- relative viability ([15]; first compound 2.53 µM): 0.807
- relative viability ([15]; first compound 8 µM): 0.755
- relative viability ([16]; first compound 0.08 µM): 0.773
- relative viability ([16]; first compound 0.8 µM): 0.784
- relative viability ([16]; first compound 2.53 µM): 0.922
- relative viability ([16]; first compound 8 µM): 0.754
- relative viability ([17]; first compound 0.08 µM): 0.407
- relative viability ([17]; first compound 0.8 µM): 0.819
- relative viability ([17]; first compound 2.53 µM): 0.36
- relative viability ([17]; first compound 8 µM): 0.85
- relative viability ([18]; first compound 0.08 µM): 0.766
- relative viability ([18]; first compound 0.8 µM): 0.828
- relative viability ([18]; first compound 2.53 µM): 0.887
- relative viability ([18]; first compound 8 µM): 0.73
- relative viability ([19]; first compound 0.08 µM): 0.557
- relative viability ([19]; first compound 0.8 µM): 0.628
- relative viability ([19]; first compound 2.53 µM): 0.513
- relative viability ([19]; first compound 8 µM): 0.656
- relative viability ([20]; first compound 0.08 µM): 0.58
- relative viability ([20]; first compound 0.8 µM): 0.604
- relative viability ([20]; first compound 2.53 µM): 0.584
- relative viability ([20]; first compound 8 µM): 0.433
- relative viability ([21]; first compound 0.08 µM): 0.873
- relative viability ([21]; first compound 0.8 µM): 0.954
- relative viability ([21]; first compound 2.53 µM): 1.01
- relative viability ([21]; first compound 8 µM): 0.801
- relative viability ([22]; first compound 0.08 µM): 0.741
- relative viability ([22]; first compound 0.8 µM): 0.816
- relative viability ([22]; first compound 2.53 µM): 0.75
- relative viability ([22]; first compound 8 µM): 0.573
- relative viability ([23]; first compound 0.08 µM): 0.58
- relative viability ([23]; first compound 0.8 µM): 0.985
- relative viability ([23]; first compound 2.53 µM): 0.732
- relative viability ([23]; first compound 8 µM): 0.58
- relative viability ([24]; first compound 0.08 µM): 0.787
- relative viability ([24]; first compound 0.8 µM): 0.826
- relative viability ([24]; first compound 2.53 µM): 0.788
- relative viability ([24]; first compound 8 µM): 0.745
- relative viability ([25]; first compound 0.08 µM): 0.746
- relative viability ([25]; first compound 0.8 µM): 0.835
- relative viability ([25]; first compound 2.53 µM): 0.782
- relative viability ([25]; first compound 8 µM): 0.704

Reference: the supplement of paper PMC10307832
